The values that follow are results of earlier work, collected in US20160082141A1, “CHITIN AND ALGINATE COMPOSITE FIBERS” (THE BOARD OF TRUSTEES OF THE UNIVERSITY OF ALABAMA, priority 2013, published 2016).

Molecules are shown by their SMILES.

For the series the following is noted: Dubbs and Gupta 1998.

Regarding `Cc1c(C)c2c(c(C)c1O)CC[C@@](C)(CCC[C@H](C)CCC[C@H](C)CCCC(C)C)O2` [Vitamin E, α-tocopherol], the “Solubility in water, mass fraction” value is 20.9×10^−6 g vitamin E/g water and the “Solubility in water, mol fraction” value was 0.87×10^−6 mole vitamin E/mole water.
